Experimental data published in patent US9120795B2, “Crystalline form of a β-lactamase inhibitor” (Cubist Pharmaceuticals, Inc., priority 2013, dated 2015).

Key:
Eco.2711 (KPC, clinical) = test: Standard BLI potentiation MIC assay; assay type: cell-based, Eschericia coli; conditions: read-out: MIC of β-lactam with BLI
Protocol: (§1) The experimental protocol was performed according to Clinical and Laboratory Standards Institute (CLSI) guidelines with modifications as described below (CLSI guidelines can be derived from the CLSI document M07-A9 published in January 2012: “Methods for Dilution Antimicrobial Susceptibility Tests for Bacteria That Grow Aerobically; Approved Standard-Ninth Edition”).
(§2) To prepare for MIC testing, frozen glycerol stocks of clinical isolates (Klebsiella pneumoniae, Eschericia coli, Enterobacter spp, Citrobacter spp, or Pseudomonas aeruginosa) were used to streak for isolated colonies on rich, non-selective, tryptic soy agar containing 5% sheep's blood (TSAB). Frozen glycerol stocks of laboratory engineered, isogenic E. coli strains, which contain cloned β-lactamase expressing plasmids were used to streak for isolated colonies on rich, selective LB agar supplemented with 25 μg/mL tetracycline to maintain the plasmid. All strains were incubated at 37° C. for 18-24 hrs.
On the day of testing, primary cultures were started by scraping off 5-10 colonies from the TSAB plates containing clinical strains or the tetracycline supplemented LB plates containing engineered strains. The clinical strain material was suspended in ˜5 mL of cation adjusted Mueller Hinton Broth (CAMHB) in 14 mL culture tubes. The engineered strain material was suspended in CAMHB (supplemented with 25 μg/mL tetracycline) in 14 mL culture tubes. All strains were incubated at 37° C. with aeration (200 rpm) for ˜2 hrs until the optical density at 600 nm (OD600) was ≧0.1.
(§3) The two compound components of the assay were each diluted in CAMHB and added to the 96-well broth microdilution assay plates. 50 μL of the β-lactam was added to each well of the assay plate in 2-fold dilutions with final concentrations ranging from 128 to 0.13 μg/mL. 25 μL of the BLI compound was added to all wells in the broth microdilution plates at a final concentration of 4 μg/mL. Inoculum cultures were prepared by standardizing the primary cultures to OD600=0.1 and then adding 20 μL of the adjusted primary culture per 1 mL CAMHB for clinical strains or CAMHB (supplemented with tetracycline at 100 μg/mL) for engineered strains, so that the final inoculum density was ˜10^5 colony forming units per milliliter. Diluted inoculum cultures were used to inoculate 25 μL per well in 96-well broth microdilution assay plates. The final volume of each well was 100 μL and contained a β-lactam at different concentrations, a BLlcompound at 4 μg/mL concentration, the bacterial culture at an OD600 of approximately 0.001 and when necessary tetracycline at 25 μg/mL.
(§4) Plates were incubated for 18-20 hours at 37° C. with aeration (200 rpm). Following incubation, growth was confirmed visually placing plates over a viewing apparatus (stand with a mirror underneath) and then OD600 was measured using a SpectraMax 340PC384 plate reader (Molecular Devices, Sunnyvale, Calif.). Growth was defined as turbidity that could be detected with the naked eye or achieving minimum OD600 of 0.1. MIC values were defined as the lowest concentration producing no visible turbidity.

Eco isogenic, CTX-M-15 = test: Synergy MIC (sMIC) assay; assay type: cell-based, E. coli; conditions: CTX-M-15, isogenic Eco; CXA-101 at 4 μg/mL
Protocol: (§5) The synergy MIC (sMIC) assay determines the concentration of the BLI required to potentiate the activity of a fixed concentration of a β-lactam antibiotic against β-lactamase producing bacterial strains. The experimental protocol was performed according to Clinical and Laboratory Standards Institute (CLSI) guidelines with modifications as described below (CLSI guidelines can be derived from the CLSI document M07-A9 published in January 2012: “Methods for Dilution Antimicrobial Susceptibility Tests for Bacteria That Grow Aerobically; Approved Standard-Ninth Edition”). The assay is set-up by serially diluting the BLI across 11 of the 12 wells in each row of a 96-well broth microdilution assay plate, adding the β-lactam at a fixed concentration to all wells in the assay plate, inoculating the assay plate with bacterial strains, and determining the lowest concentration of BLI required to inhibit overnight bacterial growth.
as §2
(§6) On the day of testing, primary cultures were started by scraping off 5-10 colonies from the TSAB plates containing clinical strains or the tetracycline supplemented LB plates containing engineered strains. The clinical strain material was suspended in ˜5 mL of cation adjusted Mueller Hinton Broth (CAMHB) in 14 mL culture tubes. The engineered strain material was suspended in CAMHB (supplemented with tetracycline at 25 μg/mL) in 14 mL culture tubes. All strains were incubated at 37° C. with aeration (200 rpm) for ˜2 hrs until the OD600 was ≧0.1.
as §3, with “prepared” for “diluted”, “BLI” for “β-lactam”, “β-lactam” for “BLI compound”, “isogenic” for “engineered”, “The final volume of each well was 100 μL and contained a β-lactam at different concentrations, a BLlcompound at 4 μg/mL concentration, the bacterial culture at an OD600 of approximately 0.001 and when necessary tetracycline at 25 μg/mL.” left out
as §4, with “sMIC” for “MIC”, “turbidity. […]” for “turbidity.”

Eco isogenic, KPC-2 = test: Synergy MIC (sMIC) assay; assay type: cell-based, E. coli; conditions: KPC-2, isogenic Eco; CXA-101 at 4 μg/mL
Protocol: as §5, §2, §6
as §3, with “prepared” for “diluted”, “BLI” for “β-lactam”, “β-lactam” for “BLI compound”, “isogenic” for “engineered”, “The final volume of each well was 100 μL and contained a β-lactam at different concentrations, a BLlcompound at 4 μg/mL concentration, the bacterial culture at an OD600 of approximately 0.001 and when necessary tetracycline at 25 μg/mL.” left out
as §4, with “sMIC” for “MIC”, “turbidity. […]” for “turbidity.”

Eco isogenic, SHV-12 = test: Synergy MIC (sMIC) assay; assay type: cell-based, E. coli; conditions: SHV-12, isogenic Eco; CXA-101 at 4 μg/mL
Protocol: as §5, §2, §6
as §3, with “prepared” for “diluted”, “BLI” for “β-lactam”, “β-lactam” for “BLI compound”, “isogenic” for “engineered”, “The final volume of each well was 100 μL and contained a β-lactam at different concentrations, a BLlcompound at 4 μg/mL concentration, the bacterial culture at an OD600 of approximately 0.001 and when necessary tetracycline at 25 μg/mL.” left out
as §4, with “sMIC” for “MIC”, “turbidity. […]” for “turbidity.”

Eco isogenic, OXA-15 = test: Synergy MIC (sMIC) assay; assay type: cell-based, E. coli; conditions: OXA-15, isogenic Eco; CXA-101 at 4 μg/mL
Protocol: as §5, §2, §6
as §3, with “prepared” for “diluted”, “BLI” for “β-lactam”, “β-lactam” for “BLI compound”, “isogenic” for “engineered”, “The final volume of each well was 100 μL and contained a β-lactam at different concentrations, a BLlcompound at 4 μg/mL concentration, the bacterial culture at an OD600 of approximately 0.001 and when necessary tetracycline at 25 μg/mL.” left out
as §4, with “sMIC” for “MIC”, “turbidity. […]” for “turbidity.”

Eco isogenic, P99 = test: Synergy MIC (sMIC) assay; assay type: cell-based, E. coli; conditions: CXA-101 at 4 μg/mL
Protocol: as §5, §2, §6
as §3, with “prepared” for “diluted”, “BLI” for “β-lactam”, “β-lactam” for “BLI compound”, “isogenic” for “engineered”, “The final volume of each well was 100 μL and contained a β-lactam at different concentrations, a BLlcompound at 4 μg/mL concentration, the bacterial culture at an OD600 of approximately 0.001 and when necessary tetracycline at 25 μg/mL.” left out
as §4, with “sMIC” for “MIC”, “turbidity. […]” for “turbidity.”

Cfr.568 (AmpC, clinical) = test: Standard BLI potentiation MIC assay; assay type: cell-based, Citrobacter spp; conditions: Citrobacter, read-out: MIC of β-lactam with BLI
Protocol: as §1
as §2, with “hrs. […]” for “hrs.”
as §4, with “MIC values were defined as the lowest concentration producing no visible turbidity.” left out

## O=C1N2C[C@@H](CC[C@H]2c2nnco2)N1OS(=O)(=O)[O-].[Na+] [Hydrate 1, sodium (2S,5R)-2-(1,3,4-oxadiazol-2-yl)-7-oxo-1,6-diazabicyclo[3.2.1]octan-6-yl sulfate]
Eco.2711 (KPC, clinical)
  MIC: 0.25 to 0.5 µg/mL
Eco isogenic, CTX-M-15
  sMIC: A (A = 0.25-0.5 μg/mL)
Eco isogenic, KPC-2
  sMIC: AA (AA = <0.25 μg/mL)
Eco isogenic, SHV-12
  sMIC: B (B = 1-2 μg/mL)
Eco isogenic, OXA-15
  sMIC: B (B = 1-2 μg/mL)
Eco isogenic, P99
  sMIC: AA (AA = <0.25 μg/mL)
Cfr.568 (AmpC, clinical)
  MIC: 1 to 2 µg/mL
